Usually IC50 stands for the concentration at which inhibition is half-maximal. Usually Ki stands for the equilibrium dissociation constant of an inhibitor or competing ligand from its target.

The subject of one assay is mouse BACE-1. As to conditions: read-out: IC50 for mouse BACE-1 inhibition; cited from earlier work.
Assay [1] addresses Torpedo californica AChE (TcAChE) (Tetronarce californica, UniProt P04058). Briefly: biochemical. In kind it is biochemical. The following applies: for Type of inhibition: Lineweaver-Burk, Dixon and Cornish-Bowden plots. As for the experimental part: The enzymatic activity of TcAChE was evaluated spectrophotometrically at room temperature by Ellman’s method[42] using a GE Ultrospec 7000 double beam spectrophotometer. […] The reaction was initiated by addition to the reaction mixture of the substrate acetylthiocoline (Sigma-Aldrich, Milan, Italy). To gain insights into the mechanism of action of 1, 2 and DNP, reciprocal plots of 1/velocity versus 1/[substrate] were constructed at substrate concentration in the 10–200 µM range. Data points are average values of three replicates. Three concentrations of inhibitors were selected for this study: 5, 10, and 20 nM. The plots were assessed by a weighted least-squares analysis that assumed the variance of the velocity (v) to be a constant percentage of v for the entire data set. Calculation of the inhibitor constant (Ki) value was carried out by re-plotting slopes of lines from the Lineweaver–Burk plot versus the inhibitor concentration and Ki was determined as the intersect on the negative x-axis. The apparent Ki’ (dissociation constant for the enzyme–substrate–inhibitor complex) value was determined by plotting the apparent 1/vmax versus inhibitor concentration. Data analyzes were performed with Graph 4.4.2.

Structures are written as SMILES. Like-named read-outs stand apart in the source and are kept apart here.

`COc1cc2c(cc1OC)C(=O)C(CC1CCN(Cc3ccccc3)CC1)C2` (stereo not shown) [Donepezil, donepezil]: in the assay on mouse BACE-1, the IC50 was […].

Chain of Torpedo californica AChE (TcAChE) (P04058 22-586): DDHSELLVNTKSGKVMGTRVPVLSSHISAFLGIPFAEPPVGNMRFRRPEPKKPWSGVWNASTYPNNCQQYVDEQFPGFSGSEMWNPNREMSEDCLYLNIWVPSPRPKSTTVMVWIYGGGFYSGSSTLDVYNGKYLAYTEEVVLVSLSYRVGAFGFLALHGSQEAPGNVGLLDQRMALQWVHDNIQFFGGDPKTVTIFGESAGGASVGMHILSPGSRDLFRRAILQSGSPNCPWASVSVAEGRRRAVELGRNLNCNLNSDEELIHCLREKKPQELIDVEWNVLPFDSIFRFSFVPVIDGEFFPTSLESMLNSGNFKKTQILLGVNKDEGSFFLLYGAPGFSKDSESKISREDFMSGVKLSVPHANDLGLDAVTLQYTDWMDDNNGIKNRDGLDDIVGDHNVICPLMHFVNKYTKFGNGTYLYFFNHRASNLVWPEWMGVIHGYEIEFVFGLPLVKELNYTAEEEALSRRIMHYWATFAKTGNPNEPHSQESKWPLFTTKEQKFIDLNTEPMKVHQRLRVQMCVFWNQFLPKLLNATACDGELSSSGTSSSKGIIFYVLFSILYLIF

Regarding `COc1cc2c(cc1OC)C(=O)/C(=C/C1CCN(Cc3ccccc3)CC1)C2` [compound 1], in assay [1], the Ki was determined as 11.1 ± 2.88 nM and the Type of inhibition result is “mixed-type inhibition”. Further, the 50% inhibitory concentration (IC50) in the assay on mouse BACE-1 is 697 nM.

`COc1ccc2c(c1)C/C(=C\C1CCN(Cc3ccccc3)CC1)C2=O` [compound 2]: the Type of inhibition result in assay [1] is “mixed-type inhibition”. Further, the inhibition constant Ki in assay [1] (acetylthiocholine 10–200 µM, inhibitor 5, 10, 20 nM, K-phosphate buffer pH 7.0, room temperature, read-out: Ki (dissociation constant for free enzyme)) came to 29.9 ± 1.12 nM. Further, the IC50 in the assay on mouse BACE-1 is 333 nM.
